Assay results from article PMC9150124, “Design of a Potent, Selective, and Brain-Penetrant Inhibitor of Wnt-Deactivating Enzyme Notum by Optimization of a Crystallographic Fragment Hit” (Journal of Medicinal Chemistry, 2022).
Converted amounts (≈) assume the structure as drawn. “And” between values parts separate entries of the source, which are not always exact repeats. Identical values can stand only once. Like-named read-outs stand apart in the source and are kept apart here.

Legend:
[1] = Stability in mouse liver microsomes; type: in vitro ADME; conditions: for half-life: mouse, liver microsomes, read-out: MLM Stability t1/2
[2] = Metabolic stability in human hepatocytes
CYP1A2 = molecular target: T1, CYP1A2 (Homo sapiens, UniProt P05177); assay: CYP450 inhibition in HLM
T1 sequence (P05177 1-516): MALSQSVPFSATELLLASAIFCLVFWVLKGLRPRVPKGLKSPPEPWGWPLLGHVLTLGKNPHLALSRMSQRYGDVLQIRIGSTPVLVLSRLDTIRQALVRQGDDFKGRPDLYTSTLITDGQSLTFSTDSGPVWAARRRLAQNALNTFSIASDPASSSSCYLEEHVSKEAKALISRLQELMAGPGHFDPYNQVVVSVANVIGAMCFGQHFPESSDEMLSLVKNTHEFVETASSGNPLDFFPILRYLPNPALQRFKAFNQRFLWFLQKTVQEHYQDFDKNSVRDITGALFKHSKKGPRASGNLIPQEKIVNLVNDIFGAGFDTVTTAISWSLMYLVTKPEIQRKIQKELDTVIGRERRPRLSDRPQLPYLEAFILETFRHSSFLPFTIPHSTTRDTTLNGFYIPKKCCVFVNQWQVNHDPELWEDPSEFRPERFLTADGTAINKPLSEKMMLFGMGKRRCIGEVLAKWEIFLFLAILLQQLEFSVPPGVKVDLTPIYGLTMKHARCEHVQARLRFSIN

HTR3A = molecular target: T2, HTR3A (Homo sapiens, UniProt P46098); assay: Safety47 HTR3A antagonist assay; type: cell-based
T2 construct: Eurofins (DiscoverX Safety47)
T2 sequence (P46098 24-478): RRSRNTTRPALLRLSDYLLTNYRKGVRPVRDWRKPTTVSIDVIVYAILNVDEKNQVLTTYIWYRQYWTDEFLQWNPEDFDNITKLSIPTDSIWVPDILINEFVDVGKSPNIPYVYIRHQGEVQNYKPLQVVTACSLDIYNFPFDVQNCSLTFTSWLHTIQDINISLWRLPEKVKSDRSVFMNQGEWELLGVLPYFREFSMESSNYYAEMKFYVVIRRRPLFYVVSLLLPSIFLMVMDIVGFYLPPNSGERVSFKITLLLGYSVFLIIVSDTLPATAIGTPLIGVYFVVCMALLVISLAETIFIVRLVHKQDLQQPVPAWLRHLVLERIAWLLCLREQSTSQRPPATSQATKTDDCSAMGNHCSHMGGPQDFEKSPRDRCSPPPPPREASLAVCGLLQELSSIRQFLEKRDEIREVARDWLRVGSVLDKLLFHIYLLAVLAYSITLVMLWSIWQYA
Experimental: (§1) Screening for off-target pharmacology across multiple drug target classes was performed in the DiscoverX Safety47 panel as the SAFETYscan E/IC50 ELECT service by Eurofins (San Diego CA, U.S.A.). Assay information and data are presented in the Supporting Information.
(§2) Safety pharmacology studies
(§3) Screening for off-target pharmacology across multiple drug target classes was performed in the DiscoverX Safety47™ panel as the SAFETYscan E/IC50 ELECT service by eurofins (San Diego CA, U.S.A.). The assays were performed utilizing the PathHunter enzyme fragment complementation (EFC) technology, FLIPR®-based cellular screening assays, KINOMEscan kinase binding assays, and a variety of enzymatic assays (78 assays).

[3] = Brain tissue binding, rapid equilibrium dialysis; type: in vitro ADME, rat
Experimental: Method: rapid equilibrium dialysis.
Test System Mouse Brain Homogenate 10% w/v in PBS
Incubation Time 5 h (mouse) or 4 h (rat)
No. of Replicates Two (mouse) or three (rat)
Buffer Phosphate buffer saline, pH 7.4
% Unbound in brain % Bound in brain %
Compound Species / Matrix homogenate SD homogenate Recovery

[4] = Permeability using Caco-2 cell monolayer; conditions: human
Caco-2 cells = assay: Permeability using Caco-2 cell monolayer; conditions: 2.00 μM
[5] = Solubility in dose formulations (cosolvents); type: physicochemical
CYP2C8 = molecular target: T3, CYP2C8 (Homo sapiens, UniProt P10632); assay: CYP450 inhibition in HLM
T3 sequence (P10632 1-490): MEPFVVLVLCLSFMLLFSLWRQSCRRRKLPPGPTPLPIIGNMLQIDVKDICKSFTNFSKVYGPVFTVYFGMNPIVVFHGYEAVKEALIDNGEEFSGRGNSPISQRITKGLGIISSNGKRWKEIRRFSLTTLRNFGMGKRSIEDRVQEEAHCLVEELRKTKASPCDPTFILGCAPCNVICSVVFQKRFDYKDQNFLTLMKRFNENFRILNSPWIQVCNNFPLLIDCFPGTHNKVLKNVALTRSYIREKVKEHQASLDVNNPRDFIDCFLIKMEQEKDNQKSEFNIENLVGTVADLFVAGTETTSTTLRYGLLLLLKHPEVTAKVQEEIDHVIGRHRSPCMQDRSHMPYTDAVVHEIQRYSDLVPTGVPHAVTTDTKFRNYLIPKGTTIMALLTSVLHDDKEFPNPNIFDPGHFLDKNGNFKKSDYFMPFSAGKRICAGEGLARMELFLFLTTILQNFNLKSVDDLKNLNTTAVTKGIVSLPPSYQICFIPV

nAChR(a4/b2) = molecular target: T4, nAChR(a4/b2) (Homo sapiens, UniProt P17787+P43681); assay: Safety47 nAChR(a4/b2) antagonist assay; type: cell-based
T4 construct: Eurofins (DiscoverX Safety47)
T4 sequence (P43681 29-627 limits assumed): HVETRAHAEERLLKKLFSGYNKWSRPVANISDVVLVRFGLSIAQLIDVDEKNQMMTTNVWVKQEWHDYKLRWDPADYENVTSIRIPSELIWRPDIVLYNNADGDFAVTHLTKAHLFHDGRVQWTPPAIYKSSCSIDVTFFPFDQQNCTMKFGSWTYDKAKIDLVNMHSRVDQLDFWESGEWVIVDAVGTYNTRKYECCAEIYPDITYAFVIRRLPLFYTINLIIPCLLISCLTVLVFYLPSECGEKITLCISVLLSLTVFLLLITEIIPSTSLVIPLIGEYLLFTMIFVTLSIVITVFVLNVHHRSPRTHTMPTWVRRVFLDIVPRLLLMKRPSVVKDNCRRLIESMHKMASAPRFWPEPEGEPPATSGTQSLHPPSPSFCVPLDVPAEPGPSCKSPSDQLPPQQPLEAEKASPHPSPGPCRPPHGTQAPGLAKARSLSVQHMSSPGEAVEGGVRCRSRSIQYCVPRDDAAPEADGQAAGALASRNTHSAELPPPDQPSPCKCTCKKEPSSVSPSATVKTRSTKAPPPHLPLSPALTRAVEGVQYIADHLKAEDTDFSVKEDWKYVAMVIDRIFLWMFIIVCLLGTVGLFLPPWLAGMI
T4 sequence (P17787 26-502): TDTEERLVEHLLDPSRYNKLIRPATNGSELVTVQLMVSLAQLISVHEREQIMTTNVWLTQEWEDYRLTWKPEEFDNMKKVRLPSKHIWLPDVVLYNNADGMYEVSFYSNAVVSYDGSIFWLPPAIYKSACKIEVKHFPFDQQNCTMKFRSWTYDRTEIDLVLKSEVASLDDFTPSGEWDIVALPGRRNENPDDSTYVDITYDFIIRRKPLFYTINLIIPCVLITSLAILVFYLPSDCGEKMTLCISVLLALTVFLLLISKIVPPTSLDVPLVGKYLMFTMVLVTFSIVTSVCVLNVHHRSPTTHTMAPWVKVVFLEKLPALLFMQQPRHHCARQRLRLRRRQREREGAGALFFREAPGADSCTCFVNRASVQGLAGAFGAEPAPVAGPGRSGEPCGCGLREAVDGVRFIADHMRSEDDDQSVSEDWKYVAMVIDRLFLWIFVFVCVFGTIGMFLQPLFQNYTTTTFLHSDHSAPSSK
Experimental: as §1, §2, §3

[6] = Metabolic stability in rat hepatocytes
[7] = Aqueous solubility in PBS (pH 7.4); type: physicochemical
Excerpt: Biosciences (Hyderabad, India) or WuXi AppTec (Shanghai, China).
Table S1: Representative assay protocol

MAOA = molecular target: T5, MAOA (Homo sapiens, UniProt P21397); assay: Safety47 MAOA assay; type: biochemical
T5 construct: Eurofins (DiscoverX Safety47)
T5 sequence (P21397 whole entry): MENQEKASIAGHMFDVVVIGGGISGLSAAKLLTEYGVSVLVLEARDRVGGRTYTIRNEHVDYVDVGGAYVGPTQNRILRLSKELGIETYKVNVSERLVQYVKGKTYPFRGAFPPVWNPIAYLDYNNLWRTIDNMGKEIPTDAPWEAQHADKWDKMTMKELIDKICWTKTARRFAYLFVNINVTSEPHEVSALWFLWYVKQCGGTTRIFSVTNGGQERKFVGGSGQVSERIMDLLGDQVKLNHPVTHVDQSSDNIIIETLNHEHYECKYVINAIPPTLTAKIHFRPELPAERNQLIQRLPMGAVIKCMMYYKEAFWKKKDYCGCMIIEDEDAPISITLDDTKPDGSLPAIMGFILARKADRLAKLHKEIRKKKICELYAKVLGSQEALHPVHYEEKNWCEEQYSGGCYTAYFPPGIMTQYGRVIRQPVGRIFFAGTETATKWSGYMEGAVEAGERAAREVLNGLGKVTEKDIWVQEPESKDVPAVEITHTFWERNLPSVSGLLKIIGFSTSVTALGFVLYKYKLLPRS
Experimental: as §1, §2, §3

[8] = Sprague–Dawley male rats, i.v. 1.0 mg/kg

SMILES: FC(F)(F)c1c(Cl)ccc(-n2ccnn2)c1Cl [8l, 1-(2,4-Dichloro-3-(trifluoromethyl)phenyl)-1H-1,2,3-triazole]
- MLM Cli [1]: 3.2 μL/min/mg protein
- Liver microsome stability Cli, MLM ([1]; additional study (Table 5)): 11.7 μL/min/mg protein
- half-life ([1]; Table S4): 2 h
- half-life ([1]; Table S8): 1.97 h
- half-life [2]: > 3.61 h
- hepatocyte CLint [2]: < 6.4 µL/min/1e6 cells
- IC50 (CYP1A2; read-out: CYP inhibition IC50, 1A2, HLM): 0.96 µM
- IC50 (CYP1A2; read-out: IC50 CYP1A2/Phenacetin, (+)NADPH pre-incubation): 0.963 µM
- IC50 (CYP1A2; read-out: IC50 CYP1A2/Phenacetin, (-)NADPH pre-incubation): 0.964 µM
- IC50 (HTR3A): 4.5 µM
- CL [8]: 7.5 mL/min/kg
- Vdss [8]: 2.0 L/kg
- t1/2 [8]: 3.3 h
- Fo (rat, p.o. 10 mg/kg): 140%
- AUC0–inf (rat, p.o. 10 mg/kg, brain): 46 100 ng·h/g
- Tmax (rat, p.o. 10 mg/kg, brain): 0.5 h
- t1/2 (rat, p.o. 10 mg/kg, brain): 8.9 h
- AUC0–inf (rat, p.o. 10 mg/kg, plasma): 32 000 ng·h/mL
- Tmax (rat, p.o. 10 mg/kg, plasma): 4.0 h
- t1/2 (rat, p.o. 10 mg/kg, plasma): 4.7 h
- fraction unbound at 4 h, 2 µM ([3]; brain homogenate, pH 7.4, SD rat, 4 h): 0.029
- recovery at 4 h, 2 µM ([3]; pH 7.4, SD rat brain homogenate): 86.8%
- Brain binding, % bound ([3]; rat brain homogenate): 97.1%
- recovery at 2 h, 2 µM ([4]; Caco-2, pH 7.4, Caco-2 A to B % Recovery): 89.1%
- Papp at 2 h, 2 μM ([4]; Caco-2, pH 7.4, Caco-2 AB Papp, apical to basal): 49.4 ×10⁻⁶ cm/s
- recovery at 2 h, 2 µM ([4]; Caco-2, pH 7.4, Caco-2 B to A % Recovery): 102%
- Papp at 2 h, 2 μM ([4]; Caco-2, pH 7.4, Caco-2 BA Papp, basal to apical): 30.3 ×10⁻⁶ cm/s
- Caco-2 AB Papp (Caco-2 cells; apical to basal): 49 10-6 cm/sec
- Caco-2 BA Papp (Caco-2 cells; basal to apical): 30 10-6 cm/sec
- solubility ([5]; 2% DMSO in PBS (with 10% solutol v/v), read-out: Solubility): 3000 µg/mL (≈ 10.6 mM)
- Mean Concentration of dose formulation ([5]; 20% w/v HPßCD in Water): 1000 µg/mL
- Mean Concentration of dose formulation ([5]; DMSO (2%v/v) + 10% v/v HPßCD in WFI (98% v/v/)): 1020 µg/mL
- Mean Concentration of dose formulation ([5]; DMSO (2%v/v) + 10% v/v Solutol in PBS (98% v/v)): 960 µg/mL
- solubility ([5]; dose formulations with cosolvents, read-out: aqueous solubility with cosolvents): 1000 µg/mL (≈ 3.55 mM)
- IC50 (CYP2C8; read-out: CYP inhibition IC50, 2C8, HLM): > 50 µM
- IC50 (CYP2C8; read-out: IC50 CYP2C8/Amodiaquine, (+)NADPH pre-incubation): > 50 µM
- IC50 (CYP2C8; read-out: IC50 CYP2C8/Amodiaquine, (-)NADPH pre-incubation): > 50 µM
- IC50 (nAChR(a4/b2); Figure S14, read-out: nAChR(a4/b2) antagonist RC50): 10.2 µM
- IC50 (nAChR(a4/b2); read-out: nAChR(a4/b2) IC50): 10 µM
- half-life [6]: 2.78 h
- hepatocyte CLint [6]: 8.3 µL/min/1e6 cells
- solubility ([7]; PBS pH 7.4, read-out: aq. solubility): 68 µg/mL and 240 µM
- solubility thermodynamic ([7]; PBS, pH 7.4, n = 2, read-out: Thermodynamic Solubility @ RT, mean): 68 µg/mL (≈ 0.241 mM)
- IC50 (MAOA): 28 µM
